PMC8231113, “Protein Secondary Structure Affects Glycan Clustering in Native Mass Spectrometry” (Life, 2021)

Molecular target: GII.4 Saga P dimer (Norovirus GII.4 (human norovirus), UniProt B5BTR7)
Assay: Native MS, specific glycan binding to P dimer after reference protein correction
Design: species or system human norovirus (hNoV)
Method: Prior to MS analysis, purified P dimers were buffer exchanged to 150 mM ammonium acetate (Sigma-Aldrich, reagent grade ≥98%) at pH 7 via centrifugal filter units at 12,000× g at 4 °C (Vivaspin 500, MWCO 10000, Sartorius). Glycans for native MS analysis were mixed with 1 µM (per monomer) purified GII.4 Saga P dimer and 3 µM of the reference proteins at indicated concentrations. Native mass spectra were measured at room temperature in positive ion mode on a high mass modified LCT Premier mass spectrometer (Waters/Micromass, UK and MS Vision, the Netherlands) with a nano-ESI source. In house-made gold-coated electrospray capillaries were used for direct-sample infusion without any accessory chromatographic separation. The voltages and pressures were optimized for non-covalent protein complexes. The gas pressure used in the source hexapole was set between 6.5 and 6.8 × 10^−2 mbar argon optimized for minimal complex dissociation and the backing pressure of the source roughing pump was set between 7.0 and 8.5 mbar. Spectra were recorded with applied voltages for the capillary and cone of 1.20 kV and 240 V, respectively. Note that charge state distributions for P dimers were sometimes slightly shifted as was the degree of glycan clustering per charge state. These changes were highly variable and not quantifiable.
For calibration of the raw data, a 25 mg/mL cesium iodide spectrum from the same day was used. MassLynx V4.1 (Waters, Manchester, UK) was used to assign peak series to protein species and to determine the mass after minimal smoothing. Furthermore, OriginPro 2016 SR2 (OriginLab, Northampton, MA, USA) was used for spectral deconvolution and curve fitting. Correction for nonspecific protein-ligand clustering was performed as described. Corrected peak areas were averaged and normalized to the free-protein signal. Data were based on at least three independent measurements. Python code Panda and Numpy package were used to calculate the specific binding of P dimers according to the glycan clustering ratio obtained from the selected reference protein candidates. Seaborn and matplotlib.pyplot package were imported into a python script to plot the results. The module of sklearn.linear model was applied for linear regression. The matplotlib and heatmap package were used to plot the heatmap.
Data from native ESI MS measurements were translated into dissociation constants (KD values). The detailed calculations were based on the equations listed below. A protein (P) and a glycan ligand (L) form a complex through non-covalent interactions leading to a reversible association described by (Equation (1)):(1) P+L⇌PL when equilibrium is reached, the KD can be calculated directly from the concentrations via the law of mass action (Equation (2)):(2) KD=[Pfree][Lfree]/[PL]
Theoretically, the KD is calculated by measuring the concentration of the three components (Pfree, Lfree, PL) in solution. Usually, these values are only indirectly accessible because they require ligand titration up to binding saturation. However, native MS allows for the directly measurement of Pfree and PL, from which Lfree can be calculated using the input concentrations. In the present work, the non-covalent interaction was measured in the gas phase assuming identical ESI and detection efficiency for free and glycan-associated proteins, both for the analyte and the reference protein. […] For P dimers, the equations reflect glycan binding to the individual monomers assuming that binding sites on each monomer are equal and independent.
Using R described in Equation (3), the KD calculation can be re-written into Equation (4) with the known initial concentration of glycan ligand [L0] and protein [P0], adapted from Sun et al.:(3) R=PLequil∕Pequil=∑nA(PL^n+)∕n∕∑nA(P^n+)∕n (4) KD =L0−RP0/1+R/R […]

Measured: Bound number of carbohydrates on Saga P dimer

CC(=O)N[C@H]1[C@@H](O[C@H]2[C@@H](O)[C@@H](CO)O[C@@H](O[C@H]3[C@H](O)[C@@H](CO)OC(O)[C@@H]3NC(C)=O)[C@@H]2O[C@@H]2O[C@@H](C)[C@@H](O)[C@@H](O)[C@@H]2O)O[C@H](CO)[C@H](O)[C@@H]1O (stereo partly shown) [HBGA A, GalNAcα1-3(Fucα-2)Galβ1-3GlcNAc]
4: ref. protein Cyto c, glycan 400 µM | ref. protein Cyto c, glycan 500 µM | ref. protein Myo, glycan 500 µM | ref. protein Ubq, glycan 300 µM | ref. protein Ubq, glycan 400 µM | ref. protein Ubq, glycan 500 µM
0: ref. protein ADH, glycan 100 µM | ref. protein ADH, glycan 200 µM | ref. protein ADH, glycan 300 µM | ref. protein ADH, glycan 400 µM | ref. protein ADH, glycan 500 µM | ref. protein LDH, glycan 100 µM | ref. protein LDH, glycan 200 µM | ref. protein LDH, glycan 300 µM | ref. protein LDH, glycan 400 µM | ref. protein apo-TFF, glycan 100 µM | ref. protein apo-TFF, glycan 200 µM
1: ref. protein CA, glycan 100 µM | ref. protein CA, glycan 200 µM | ref. protein CA, glycan 300 µM | ref. protein CA, glycan 400 µM | ref. protein CA, glycan 500 µM | ref. protein GFP, glycan 100 µM | ref. protein GFP, glycan 200 µM | ref. protein GFP, glycan 300 µM | ref. protein GFP, glycan 400 µM | ref. protein GFP, glycan 500 µM | ref. protein LDH, glycan 500 µM | ref. protein apo-TFF, glycan 300 µM | ref. protein apo-TFF, glycan 400 µM | ref. protein apo-TFF, glycan 500 µM
2: ref. protein Cyto c, glycan 100 µM | ref. protein Myo, glycan 100 µM | ref. protein Ubq, glycan 100 µM
3: ref. protein Cyto c, glycan 200 µM | ref. protein Cyto c, glycan 300 µM | ref. protein Myo, glycan 200 µM | ref. protein Myo, glycan 300 µM | ref. protein Myo, glycan 400 µM | ref. protein Ubq, glycan 200 µM
